Experimental data reported in US10285988B2, “Compounds for treatment of fibrosis diseases” (CUREGENIX, INC., priority 2013, dated 2019).

What follows are compounds tested on WNT pathway (assay: WNT pathway reporter gene assay (NIH3T3 TCF-Luc cells co-cultured with 293 WNT3a cells)). Details: Mus musculus, co-culture 16 hours, luciferase luminescence reduced by 50%.
Format: cell-based
Description: Materials and Methods: NIH3T3 mouse fibroblast cells (American Type Culture Collection, Manassas, Va.) were transfected with a plasmid containing a luciferase gene driven by 5 copies of TCF elements. Stale cells selected with 1 μg/mL of Zeocin (Gibco/Invitrogen, Carlsbad, Calif.) are cultured in Dulbecco's modified Eagle's medium (Invitrogen, Carlsbad, Calif.) supplemented with 10% FBS (Invitrogen), 50 unit/mL penicillin and 50 μg/mL of streptomycin (Invitrogen) at 37° C. with 5% CO2 in air atmosphere.
After 16 hours, the firefly luciferase activities are measured with the Steady-Glo™ Luciferase Assay System (Promega). The cells were treated with different concentrations of compounds of this invention during the co-culture. […] To normalize for cell quantity and viability, CellTiter Glo assay is next performed in a duplicate plate.
With Cc1cc(-c2ccc(CNc3nccc4cc(-c5ccnc(C)c5)ncc34)cc2)ccn1 [Compound 1, N-(4-(2-methylpyridin-4-yl)benzyl)-6-(2-methylpyridin-4-yl)-2,7-naphthyridin-1-amine] the IC50 was < 3 nM.
In the case of Cc1cc(-c2cc3ccnc(NCc4ccc(-c5ccnc(C)c5)c(C)c4)c3cn2)ccn1 [Compound 2, N-(3-methyl-4-(2-methylpyridin-4-yl)benzyl)-6-(2-methylpyridin-4-yl)-2,7-naphthyridin-1-amine], the IC50 is reported as < 3 nM.
With Cc1cc(-c2cc3ccnc(NCc4ccc(-c5ccnc(F)c5)c(F)c4)c3cn2)ccn1 [Compound 28] the IC50 was < 3 nM.
For Cc1cc(-c2ccc(CNc3nccc4cc(-c5cnccn5)ncc34)cc2)ccn1 [Compound 35], the IC50 was < 3 nM.
With Cc1cc(-c2ncc(CNc3nccc4cc(-c5cnccn5)ccc34)cc2C)ccn1 [Compound 70] the IC50 was < 3 nM.
